Data from patent publication EP0044212B1, “Herbicidal o-alkylsulfonyloxy- and o-alkylsulfonylamino-benzenesulfonamides” (E.I. DU PONT DE NEMOURS AND COMPANY, priority 1980, dated 1982).

Assays:
Russian Thistle = assay: Test D pre-/post-emergence weed control in cereals; assay type: in vivo, Salsola kali; conditions: 20 days
Description: (§1) Two ten-inch in diameter plastic pans lined with polyethylene liners were filled with prepared Fallsington slit loam soil. One pan was planted with seeds of wheat (Triticum aestivum), barley (Hordeum vulgarel, wild oats (Avena fatua), downy brome (Bromus tectorum), cheatgrass (Bromus secalinus), blackgrass (Alopecurus myosuroides), annual bluegrass (Poa annual, green foxtail (Setaria viridis), quack grass (Agropyron repens), Italian ryegrass (Lolium multiflorum) and ripgut brome (Bromus rigidus). The other pan was planted with seeds of Russian thistle (Salsola kali), tansy mustard (Descuraina pinnata), smartweed (Polygonum pensylvanicum), tumble mustard (Sisymbrium altissium) kochia (Kochia scoparia), shepherd's purse (Capsella bursa-pastoris), Matricaria inodora, black nightshade (Solanum nigrum), yellow rocket (Barbarea vulgaris), wild mustard (Brassica kaber) and wild buckwheat (Polygonum convolvulus). The above two pans were treated pre-emergence. At the same time two pans in which the above plant species were growing were treated post-emergence. Plant height at the time of treatment ranged from 1-15 cm depending on plant species.
(§2) The compounds applied were diluted with a non-phytotoxic solvent and sprayed over-the-top of the pans. An untreated control and a solvent alone control were included for comparison. All treatments were maintained in the greenhouse for 20 days at which time the treatments were compared to the controls and the effects visually rated. The recorded data, presented in Table D, indicate that certain compounds from within the scope of the invention have utility for pre- and/or post-emergence weed control in cereal crops such as wheat and barley.

Annual Bluegrass = assay: Test D pre-/post-emergence weed control in cereals; assay type: in vivo, Poa annual; conditions: 20 days
Description: as §1, §2

Green Foxtail = assay: Test D pre-/post-emergence weed control in cereals; assay type: in vivo, Setaria viridis; conditions: 20 days
Description: as §1, §2

Tumble Mustard = assay: Test D pre-/post-emergence weed control in cereals; assay type: in vivo, Sisymbrium altissium; conditions: 20 days
Description: as §1, §2

Quackgrass = assay: Test D pre-/post-emergence weed control in cereals; assay type: in vivo, Agropyron repens; conditions: 20 days
Description: as §1, §2

Wild Buckwheat = assay: Test D pre-/post-emergence weed control in cereals; assay type: in vivo, Polygonum convolvulus; conditions: Pre-Emergence; 0.015 kg/ha; 20 days
Description: as §1, with “Plant height at the time of treatment ranged from 1-15 cm depending on plant species.” left out
(§3) The compounds applied were diluted with a non-phytotoxic solvent and sprayed over-the-top of the pans. […] The recorded data, presented in Table D, indicate that certain compounds from within the scope of the invention have utility for pre- and/or post-emergence weed control in cereal crops such as wheat and barley.

Barley = assay: Test D pre-/post-emergence weed control in cereals; assay type: in vivo, Hordeum vulgarel; conditions: 20 days
Description: as §1, §2

Black Nightshade = assay: Test D pre-/post-emergence weed control in cereals; assay type: in vivo, Solanum nigrum; conditions: 0.015 kg/ha, 20 days
Description: as §1, with “Plant height at the time of treatment ranged from 1-15 cm depending on plant species.” left out
as §3

Wheat = assay: Test D pre-/post-emergence weed control in cereals; assay type: in vivo, Triticum aestivum; conditions: 20 days
Description: as §1, §2

Soybeans = assay: Test G broadleaf herbicidal properties, overall spray; assay type: in vivo, soybean; conditions: 0.015 kg/ha, 22 days after treatment
Experimental: (§4) Approximately 12 soybean plants were grown in a 25 cm. diameter plastic pot. In another pot of equal size the following broadleaf plant species were grown: sugarbeets, velvetleaf, Sesbania, Cassia, mustard, morningglory, alfalfa, jimsonweed, and cocklebur. The plant foliage and surrounding soil were treated with the test chemical dissolved in a non-phytotoxic solvent as an overall spray at the rate of 0.015 kg/ha, when the plants were 17 days old. Visual ratings of herbicidal effects were made 22 days after treatment utilizing the rating system described for Test A.

Mustard = assay: as above; assay type: in vivo; conditions: 0.015 kg/ha, 22 days after treatment
Experimental: as §4

Sugarbeets = assay: as above; assay type: in vivo; conditions: 0.015 kg/ha, 22 days after treatment
Experimental: as §4

Jimsonweed = assay: as above; assay type: in vivo; conditions: 0.015 kg/ha, 22 days after treatment
Experimental: as §4

Grasses = assay: Test C pre-emergence on Fallsington silt loam soil; assay type: in vivo, johnsongrass, barnyardgrass, crabgrass, giant foxtail; conditions: 28 days
Description: (§5) The high herbicidal activity of two of the compounds from within the scope of the invention is evident from the results obtained in this test. The experiment concerned pre-emergence applications on soil. The containers used were 25 cm diameter plastic pots filled with Fallsington silt loam. One set of pots was planted to weeds, the seeds of which were uniformly mixed with the top 1.2 cm layer of soil. The species selected were: johnsongrass (Sorghum halepense), barnyardgrass (Echinochloa crusgalli), crabgrass (Digitaria sanguinalis), giant foxtail (Setaria faberii), velvetleaf (Abutilon theophrasti), jimsonweed (Datura stramonium), mustard (Brassica arvensis), and pigweed (Amaranthus retroflexus). Another set of pots were planted to the following crops with from one to four species per pot: corn (planting depth 3.7 cm), cotton, soybeans, sunflower, Clinton oats, wheat, Black Valentine beans, rice, sorghum, peas, flax, and peanuts (all at 2.5 cm depth), cucumbers, cabbage, alfalfa, safflower, sugarbeets, tomato, spinach, barley, and Kentucky bluegrass (all at 1.2 cm depth). Immediately after planting, the test chemical was applied to the soil surfaces dissolved in a non-phytotoxic solvent. One pot from the weed phase and one of each of the crop species were left untreated for the purpose of comparison. The treated and untreated pots were promptly watered with approximatley 4 mm of simultated rainfall and then held in a greenhouse for several weeks. Visual weed and crop response ratings were made 28 days after treatment utilizing the rating system as described above for Test A. The data are given in Table C.

Ky. bluegrass = assay: Test C pre-emergence on Fallsington silt loam soil; assay type: in vivo, Kentucky bluegrass; conditions: 0.03 kg/ha, 28 days
Description: as §5, with “The treated and untreated pots were promptly watered with approximatley 4 mm of simultated rainfall and then held in a greenhouse for several weeks. Visual weed and crop response ratings were made 28 days after treatment utilizing the rating system as described above for Test A. The data are given in Table C.” left out

Broadleaves = assay: Test C pre-emergence on Fallsington silt loam soil; assay type: in vivo, velvetleaf, jimsonweed, mustard, pigweed; conditions: 28 days
Description: as §5, with “The treated and untreated pots were promptly watered with approximatley 4 mm of simultated rainfall and then held in a greenhouse for several weeks. Visual weed and crop response ratings were made 28 days after treatment utilizing the rating system as described above for Test A. The data are given in Table C.” left out

Velvetleaf = assay: Test F over-the-top soil/foliage treatment; assay type: in vivo, Abutilon theophrasti; conditions: soil/foliage spray, ~14 days
Experimental: The test chemicals, dissolved in a non-phytotoxic solvent, were applied in an overall spray to the foliage and surrounding […] of selected plant species. […] Approximately fourteen days after treatment, all species were visually compared to untreated controls and rated for response to treatment.
All plant species were seeded in Woodstown sandy loam soil and grown in a greenhouse. The following species were grown in soil contained in plastic pots (25 cm diameter by 13 cm deep): soybeans, cotton, alfalfa, corn, rice, wheet, sorghum, velvetleaf (Abutilon theophrasti), sesbania (Sesbania exaltata), Cassia (Cassia tora), morningglory (Ipomoea hederacea), jimsonweed (Datura stramonium), cocklebur (Xanthium pensylvanicum), crabgrass (Digitaria spp.), nutsedge (Cyperus rotundus), barnyardgrass (Echinochloa crusgalli), giant foxtail (Setaria faberii) and wild oats (Avena fatua). The following species were grown in soil in a paper cup (12 cm diameter by 13 cm deep): sunflower, sugarbeets, and mustard. All plants were sprayed approximately 14 days after planting.

With `CCCS(=O)(=O)Oc1ccccc1S(=O)(=O)NC(=O)Nc1nc(OC)cc(OC)n1` [Compound 36, N-[(4,6-dimethoxypropimidin-2-yl)aminocarbonyl]-2-hydroxybenzenesulfonamide, 1-propanesulfonate] the “Russian Thistle response rating” value (Russian Thistle; Post-Emergence, 0.015 kg/ha) was 0, the “Russian Thistle response rating” value (Russian Thistle; Post-Emergence, 0.06 kg/ha) was 2G and the “Russian Thistle response rating” value (Russian Thistle; Pre-Emergence, 0.015 kg/ha) was 0. For the same compound, the “Russian Thistle response rating” value (Russian Thistle; Pre-Emergence, 0.06 kg/ha) was 1G, the “Annual Bluegrass response rating” value (Annual Bluegrass; Post-Emergence, 0.015 kg/ha) was 2G and the “Annual Bluegrass response rating” value (Annual Bluegrass; Post-Emergence, 0.06 kg/ha) was 3G. The “Annual Bluegrass response rating” value (Annual Bluegrass; Pre-Emergence, 0.015 kg/ha) was 6G, the “Green Foxtail response rating” value (Green Foxtail; Post-Emergence, 0.015 kg/ha) was 1G and the “Green Foxtail response rating” value (Green Foxtail; Post-Emergence, 0.06 kg/ha) was 2G. For the same compound, the “Green Foxtail response rating” value (Green Foxtail; Pre-Emergence, 0.015 kg/ha) was 2G, the “Tumble Mustard response rating” value (Tumble Mustard; Post-Emergence, 0.015 kg/ha) was 10C and the “Tumble Mustard response rating” value (Tumble Mustard; Post-Emergence, 0.06 kg/ha) was 10C. The “Tumble Mustard response rating” value (Tumble Mustard; Pre-Emergence, 0.015 kg/ha) was 5G, the Quackgrass response rating (Quackgrass; Post-Emergence, 0.015 kg/ha) was 0 and the Quackgrass response rating (Quackgrass; Post-Emergence, 0.06 kg/ha) was 0. The Quackgrass response rating (Quackgrass; Pre-Emergence, 0.015 kg/ha) was 0, the Quackgrass response rating (Quackgrass; Pre-Emergence, 0.06 kg/ha) was 2G and the “Wild Buckwheat response rating” value (Wild Buckwheat) was 3G. The Barley response rating (Barley; Post-Emergence, 0.015 kg/ha) was 0, the Barley response rating (Barley; Post-Emergence, 0.06 kg/ha) was 0 and the Barley response rating (Barley; Pre-Emergence, 0.015 kg/ha) was 0. The Barley response rating (Barley; Pre-Emergence, 0.06 kg/ha) was 0, the “Black Nightshade response rating” value (Black Nightshade; Post-Emergence) was 2G and the “Black Nightshade response rating” value (Black Nightshade; Pre-Emergence) was 4G. The Wheat response rating (Wheat; Post-Emergence, 0.015 kg/ha) was 0, the Wheat response rating (Wheat; Post-Emergence, 0.06 kg/ha) was 0 and the Wheat response rating (Wheat; Pre-Emergence, 0.015 kg/ha) was 0. The Wheat response rating (Wheat; Pre-Emergence, 0.06 kg/ha) was 0.
In the case of `CCCS(=O)(=O)Oc1ccccc1S(=O)(=O)NC(=O)Nc1nc(C)nc(OC)n1` [Compound 39, 2-hydroxy-N-[(4-methoxy-6-methyl-1,3,5-triazin-2-yl)aminocarbonyl]benzenesulfonamide, 1-propanesulfonate], the Soybeans response rating (Soybeans) was 0, the Mustard response rating (Mustard) was 10C and the Sugarbeets response rating (Sugarbeets) was 9G. The Jimsonweed response rating (Jimsonweed) was 0.
For `COc1cc(OC)nc(NC(=O)NS(=O)(=O)c2ccccc2OS(C)(=O)=O)n1` [Compound 1, N-[(4,6-Dimethoxypyrimidin-2-yl)aminocarbonyl]-2-hydroxybenzenesulfonamide, methanesulfonate], the Grasses response rating (Grasses; 0.0035 kg/ha) was 0, the Grasses response rating (Grasses; 0.0075 kg/ha) was 0 and the Grasses response rating (Grasses; 0.015 kg/ha) was 2G. For the same compound, the “Ky. bluegrass response rating” value (Ky. bluegrass) was 7G, the Broadleaves response rating (Broadleaves; 0.0035 kg/ha) was 3G and the Broadleaves response rating (Broadleaves; 0.0075 kg/ha) was 4G.
In the case of `Cc1cc(C)nc(NC(=O)NS(=O)(=O)c2ccccc2OS(C)(=O)=O)n1` [Compound 3, N-[(4,6-dimethylpyrimidin-2-yl)aminocarbonyl]-2-hydroxybenzenesulfonamide, methanesulfonate], the Velvetleaf response rating (Velvetleaf; 0.003 kg/ha) was 7G and the Velvetleaf response rating (Velvetleaf; 0.015 kg/ha) was 5G.
